According to US20230202997A1, “CHROMANOL, QUINONE OR HYDROQUINONE COMPOUNDS FOR TREATMENT OF SEPSIS” (Sulfateq B.V., priority 2020, published 2023):

Key:
IL-1β mRNA expression = test: Endothelial inflammatory activation after endotoxin, IL-1β mRNA (Example 5); type: cell-based, Human; conditions: HUVEC; 10 μM for 30 min
Method: (§1) Human Umbilical Cord Endothelial Cells (HUVEC, Lonza CC-2519) were maintained on 1% gelatin-coated culture flasks in RPMI1640 medium containing 20% fetal bovine serum, 2 mM Glutamine (Sigma-Aldrich), 1% Penicillin-Streptomycin solution (Sigma-Aldrich) and 50 μg/ml Bovine Pituitary Extract (Invitrogen). HUVEC were passaged by trypsinization when the cultures reach a confluency of 70%. For all experiments, HUVEC were seeded at 0.6·10^5 cells/cm^2 and allowed to adhere for 24 hours.
HUVEC cells were lysed in triZOL reagens (Invitrogen) and total RNA isolated according to manufacturers' instruction. 1 μg total RNA per sample was reverse transcribed using the FirstAid Reverse Transcription Kit (ThermoFisher). Copy-DNA equivalents of 5 ng total RNA were amplified on a ViiA7 Real-time PCR system (ThermoFisher, Waltham, Mass.) using iTaq Universal SYBR Green Supermix (Bio-Rad, Hercules, Calif.) and primers specific for tumor necrosis factor alpha (TNFα; sense 5′-[…]-3′, antisense 5′-[…]-3′), interleukin 1 beta (IL-1β; sense 5′-[…]-3′, antisense 5′-[…]-3′), interleukin-6 (IL-6; sense 5′-[…]-3′, antisense 5′-[…]-3′) and beta actin (ACTB; sense 5′-[…]-3′, antisense 5′-[…]-3′) as loading control. Amplification was performed for 40 cycles of 95° C. for 30 s, 60° C. for 1 min. Relative mRNA expression was calculated according to the δδCt-method.

IL-6 mRNA expression = test: Inhibition of LPS-induced IL-6 mRNA expression in HUVEC; type: cell-based, Human; conditions: 10 μM for 30 min, then LPS 24 hours
Method: as §1
(§2) HUVEC and NRK52E cells were pre-incubated with SUL compounds (10 μM) for 30 min and subsequently exposed to LPS for 24 hours under standard culture conditions. Cells were lysed in triZOL reagens (Invitrogen) and total RNA isolated according to manufacturers' instruction. 1 μg total RNA per sample was reverse transcribed using the FirstAid Reverse Transcription Kit (ThermoFisher). Copy-DNA equivalents of 5 ng total RNA were amplified on a ViiA7 Real-time PCR system (ThermoFisher, Waltham, Mass.) using iTaq Universal SYBR Green Supermix (Bio-Rad, Hercules, Calif.) and primers specific for tumor necrosis factor alpha, interleukin 1 beta, interleukin-6 and beta actin as loading control. Amplification was performed for 40 cycles of 95° C. for 30 s, 60° C. for 1 min. Relative mRNA expression was calculated as 2^−(Cq^gene^−Cq^reference^) and normalized to unstimulated control cells (100% inhibition) and vehicle-treated and LPS exposed cells (0% inhibition). The following primers were used: […]

[1] = tested on: CLP-induced kidney dysfunction; test: CLP sepsis model, serum urea and NGAL as kidney biomarkers; type: in vivo; conditions: CLP mice; SUL-138 5 mg/kg s.c. 2 h before and 8 h after surgery; 24 hours
Method: To induce sepsis, the standard cecal ligation and puncture (CLP) model was used. Animals were anesthetized by subcutaneous injection of xylazine/ketamine (100/10 mg/kg), followed by administration of buprenorphine (0.1 mg/kg) as analgesic. After confirmation of anesthesia by lack of response to paw pinch and eye reflex, the abdomen was shaved, cleaned, and de-germed using a povidone-iodine solution before a 1-cm midline incision was made. The cecum was ligated with a 6-0 suture at half the distance between distal pole and the base of the cecum and punctured once with a 21-Gauge needle (‘through-and-through’ from mesenteric toward anti-mesenteric direction) which is an accepted model for ‘mid-grade’ sepsis. A small amount of stool (2-3 mm) was then extruded to ensure wound patency. The cecum was repositioned, thereby taking care not to spill fecal material on the wound edges, followed by closure of the abdomen by running sutures to the abdominal musculature and short interrupted sutures to the skin. Next, 1 ml of saline (warmed, 0.9% NaCl s.c.) was administered to compensate for the expected relative volume depletion due to the onset of sepsis. […]
Furthermore, the amount of NGAL and urea were measured in serum.

TNFα mRNA expression [2] = test: Inhibition of LPS-induced TNFα mRNA expression in HUVEC; type: cell-based, Human; conditions: 10 μM for 30 min, then LPS 24 hours
Method: as §1, §2

TNFα mRNA expression [3] = test: Inhibition of LPS-induced TNFα mRNA expression in NRK52E; type: cell-based, Rat; conditions: 10 μM for 30 min, then LPS 24 hours
Method: Rat kidney epithelial cells (ATCC #CRL-1571) were maintained in DMEM medium containing 10% fetal bovine serum, and 1% Penicillin-Streptomycin solution (Sigma-Aldrich). NRK52E cells were passaged by trypsinization when the cultures reached a confluency of 70%. For all experiments, NRK52E cells were seeded at 0.6·10^5 cells/cm^2 and allowed to adhere for 24 hours.
as §2

HUVEC = test: LPS-induced mitochondrial oxidative stress in HUVEC (MitoSOX); type: cell-based, Human; conditions: SUL-138 added one hour prior to LPS
Method: Human Umbilical Vein Endothelial cells (HUVEC) were obtained from the RuG/UMCG Endothelial Cell Facility. Primary isolates of umbilical cords were mixed and subsequently cultured on HUVEC culture medium, consisted of RPMI 1640 (Lonza, art.nr. BE12-115F) supplemented with 20% heat-inactivated fetal calf serum (ThermoFisher Scientific, art.nr. 10082147), 2 mM 1-glutamine (Life Technologies art.nr. 25030), 5 U/ml heparin (Leo Pharmaceutical Products), 1% Penicillin/Streptomycin (Sigma-Aldrich art.nr. P4333), and 50 μg/ml EC growth factor supplement from (Sigma-Aldrich, art.nr. E2759).
Primary HUVECs were cultured in 75-cm2 tissue culture flasks (Corning, art.nr. 430720U) at 37° C. under 5% CO2/95% air. HUVECs were used for experiments up to passage 8. Experiments were performed in 6-well (Corning art.nr. 3506) or 96-well culture plates (Corning, art.nr. 3596), at 80% confluency. Cells were stimulated with LPS E. coli 0111:B4 (Sigma-Aldrich, art.nr. L2630) in different concentrations. Cells were detached with trypsin (Sigma-Aldrich, art.nr. 25300054). All compounds were dissolved in Hanks Balanced Salt Solution (Lonza, art.nr. 10-527F). […]
Cells and mitochondria were incubated and measured according to manufacturer's protocol in the Synergy H4 micro plate reader (Bio-Tek) at an excitation/emission rate of 548/574 nm.

Structure (SMILES): Cc1c(C)c2c(c(C)c1O)CC[C@@](C)(C(=O)N1CCN(CCO)CC1)O2 [SUL-138, (S)-(6-hydroxy-2,5,7,8-tetramethylchroman-2-yl)(4-(2-hydroxyethyl)piperazin-1-yl)methanone]
- LPS-induced mRNA expression of IL-1β (IL-1β mRNA expression): precluded the LPS-induced increase in IL-1β and IL-6
- inhibition of LPS-induced mRNA expression of IL-6 (IL-6 mRNA expression): 68.3 ± 6.7 %
- Serum NGAL level [1]: not different from Sham operated animals
- Serum urea level [1]: not different from Sham operated animals
- inhibition of LPS-induced mRNA expression of TNFα (TNFα mRNA expression [2]): 81.4 ± 4.5 %
- inhibition of LPS-induced mRNA expression of TNFα (TNFα mRNA expression [3]): 52.6 ± 11.6 %
- LPS induced mitochondrial oxidative stress (MitoSOX) (HUVEC): reduces LPS induced mitochondrial oxidative stress
